From US9096543B2, “Nuclear transport modulators and uses thereof” (Karyopharm Therapeutics Inc., priority 2012, dated 2015)
pIC50: −log10 of the molar value. Entries after “also recorded” stand apart in the source; their conditions may differ.

Key:
[1] = tested on: collagen-induced arthritis; assay: Collagen-induced arthritis (CIA) in Lewis rats; format: in vivo
Experimental: Forty (40) female Lewis rats (BK), aged 6 to 8 weeks with a pre-treatment body weight range of 180 to 200 g were divided randomly into four (4) groups (Groups A-D) of ten (10) rats each. The rats in Groups B to D were immunized intradermally with bovine CII in IFA at three sites near the base of the tail and over the back with 500 μl, of the emulsion on day 0 (200 μL, 200 μL, 100 μL for each site). On day 7, the rats in Groups B-D were given booster injections with the same amount of the emulsion intradermally near the former injection sites. […] Rats were weighed daily and a drug holiday was given to an animal when a weight loss of greater than 13%. CIA development was evaluated via macroscopic scoring and measurements of paw swelling. […] Foot volume was measured by plethysmometry on the same day of the arthritic measurement throughout the study period. The cubage of each hind paw and swelling rate were measured and using the following equation: Swelling Rate=(CN−C0)/C0×100%. […] The clinical scores were summed for each animal, and the total average of all animals in each group was expressed as the mean arthritic score. […] Prepared sections of hind paws were subjected to hematoxylin and eosin (H&E) staining.

diet-induced obesity = assay: Diet-induced obesity (DIO) model; format: in vivo, Sprague-Dawley rats
Experimental: Male Sprague-Dawley rats of age 2 months were placed on a high fat diet (Research Diets Inc., product code D12492, 60% kcal % fat) for 3 months. A group of age-matched rats were fed normal lab chow (LabDiet 5001, ˜13% kcal % fat), these animals served as controls for DIO group.
At age 4 months, and 2 months into placement of high fat diet, all rats were allocated into 3 groups of N=7 based on equivalent body weights and food intakes. Body weights and food and water intakes were measured at approximately the same time each day. On treatment days, dosing was at approximately 2 hours before lights off.
The DIO control group was treated with vehicle (oral, 10 mL/kg dose volume; 0.5% Pluronic F68 and 0.5% PVP K29/32 in water) on each weekday. The Compound 21.5 mg/kg group was orally treated on each weekday throughout the treatment phase (dose 10 mL/kg dose volume; 0.5% Pluronic F68 and 0.5% PVP K29/32 in water). The Compound 2 3 mg/kg group (10 mL/kg dose volume; 0.5% Pluronic F68 and 0.5% PVP K29/32 in water) was orally treated initially once daily on each weekday for week 1, then twice weekly (Monday, Wednesday) for week 2. During treatment weeks 3 and 4, Compound 2 3 mg/kg treatment continued twice weekly, except dosing was on Monday and Thursday.
Prior to the treatment phase, 3 days baseline data were collected. The treatment phase was for 4 weeks. A washout phase of 10 days was also included.
Compound 2 was supplied in powder form. […] Active percentage was adjusted using BEW of 1.437 and prepared by dissolving into 0.5% w/v Pluronic F-68 and 0.5% w/v PVP K-29-32 vehicle solution. The vehicle solution was prepared on a weekly basis while Compound 2 was prepared fresh every 2 days and stored at +4° C. Animals were dosed at a volume of 10 mL/kg. Individual doses were calculated based on the most recent body weights to provide the proper mg/kg/day dosage.

CRM1 = target: T1, CRM1 (Homo sapiens, UniProt O14980); assay: RevGFP assay: inhibition of CRM1 mediated nuclear export; format: cell-based; details: U2OS-RevGFP cells, ~1 hr with compound; read-out: Rev Export [IC50]
T1 construct: endogenous in cells; host or cells: U2OS-RevGFP cells
T1 sequence (O14980 whole entry): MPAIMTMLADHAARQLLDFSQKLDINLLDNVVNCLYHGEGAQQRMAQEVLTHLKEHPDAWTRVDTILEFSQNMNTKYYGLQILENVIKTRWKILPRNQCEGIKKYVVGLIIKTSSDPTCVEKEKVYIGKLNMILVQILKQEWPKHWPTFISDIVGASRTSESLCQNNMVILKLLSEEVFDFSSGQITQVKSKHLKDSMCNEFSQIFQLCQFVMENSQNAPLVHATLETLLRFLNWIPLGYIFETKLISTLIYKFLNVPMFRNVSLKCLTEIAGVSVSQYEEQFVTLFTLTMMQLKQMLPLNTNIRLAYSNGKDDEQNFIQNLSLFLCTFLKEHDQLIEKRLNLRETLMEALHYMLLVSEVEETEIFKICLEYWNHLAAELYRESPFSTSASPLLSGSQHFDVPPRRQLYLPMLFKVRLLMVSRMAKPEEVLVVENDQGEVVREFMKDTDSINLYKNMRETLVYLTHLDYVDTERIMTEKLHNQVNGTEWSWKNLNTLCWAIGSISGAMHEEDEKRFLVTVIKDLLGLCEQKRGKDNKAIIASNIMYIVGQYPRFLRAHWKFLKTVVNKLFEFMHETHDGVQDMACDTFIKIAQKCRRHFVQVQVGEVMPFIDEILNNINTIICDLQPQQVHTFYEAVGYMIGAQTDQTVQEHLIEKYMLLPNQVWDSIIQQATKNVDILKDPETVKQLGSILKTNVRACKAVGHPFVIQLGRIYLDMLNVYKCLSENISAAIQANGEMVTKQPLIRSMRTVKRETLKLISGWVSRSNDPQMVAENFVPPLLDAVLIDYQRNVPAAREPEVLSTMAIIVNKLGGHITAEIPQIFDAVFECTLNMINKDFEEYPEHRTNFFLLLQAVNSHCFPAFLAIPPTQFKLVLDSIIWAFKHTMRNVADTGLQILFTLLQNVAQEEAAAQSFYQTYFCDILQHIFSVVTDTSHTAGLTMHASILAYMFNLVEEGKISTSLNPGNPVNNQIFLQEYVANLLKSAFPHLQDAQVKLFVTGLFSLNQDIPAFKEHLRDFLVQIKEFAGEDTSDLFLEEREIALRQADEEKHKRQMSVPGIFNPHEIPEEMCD
Experimental: The inhibition of CRM1 mediated nuclear export by compounds of the invention was determined. The inhibitory activity of compounds for the CRM1 protein was determined in the RevGFP assay.
Experimental protocol: Rev is a protein from human immunodeficiency virus type 1 (HIV-1) and contains a nuclear export signal (NES) in its C-terminal domain and a nuclear localization signal (NLS) in its N-terminal domain. Nuclear export of Rev protein is dependent on the classical NES/CRM1 pathway (Neville et al, 1997, Kau et al, 2003). Nuclear accumulation of Rev is observed in cells treated with specific inhibitors of CRM1, such as LMB (Kau et al, 2003). In this assay, U2OS-RevGFP cells are seeded onto clear-bottom, black, 384-well plates the day before the experiment. Compounds are serially diluted 1:2 starting from 40 μM in a separate 384-well plate in DMEM, and then transferred onto cells. Cells are incubated with compound for ˜1 hr before fixation with 3.7% formaldehyde and nuclei staining with Hoechst 33258. The amount of GFP in cell nuclei was measured and compound IC50s were determined (Kau et al, 2003).

[2] = tested on: cytokines GRO/KC, IFNγ, IL-1B, IL-6, IL-10, IL-12p70 and TNFa; assay: Plasma cytokine expression after BCCI injury (Luminex); format: in vivo, rats; details: 6 mg/kg
Experimental: The expression level of several cytokines in plasma harvested from rats in each treatment group was measured. The samples were received frozen and stored at −80° C. On the day of the experiment, the samples were thawed, diluted four-fold, and analyzed for cytokine expression on a Luminex platform. The samples were analyzed for the cytokines GRO/KC, IFNγ, IL-1B, IL-6, IL-10, IL-12p70 and TNFa, using a multipliex kit manufactured by Millipore. […] The biggest change was in IL-10.

MOG-induced EAE = assay: MOG-induced experimental autoimmune encephalomyelitis (EAE) murine model; format: in vivo, C57B1/6J mice; details: Compound 1 7.5 mg/kg p.o. from day 11, Monday, Wednesday and Friday, 3 weeks
Experimental: The EAE Model is an accepted model for the study of human CNS demyelinating diseases such as multiple sclerosis. The effects of Compound 1 were investigated in MOG-induced in an EAE murine model in female C57B1/6J mice. […] Compound 1 at 7.5 mg/kg was administered orally starting from day 11 (disease onset) on Monday, Wednesday and Friday for 3 consecutive weeks. The disease was induced by the single intradermal injection of MOG emulsified in Complete Freund's Adjuvant (CFA) on study day 0, followed by intraperitoneal supplemental immunostimulation with pertussis toxin (PT) carried out on study day 0, and again 48 hours later on study day 2.

SMILES	therapeutic efficacy (Clinical Scores, Joint Swelling, histological examination) ([1]; 4 mg/kg (MPK) PO QoD from onset to day 28)	histopathological analysis of hind paws (H&E) ([1]; day 28, 4 mg/kg PO QoD from onset)	daily food intake and body weight compared to DIO control group (diet-induced obesity; 1.5-3 mg/kg oral, 28 day treatment period)	body weight gain (percentage of body weight change from study day 3) compared to DIO controls (diet-induced obesity; 1.5 and 3 mg/kg, treatment days 7 (study day 10) and 14 (study day 17))	body weight over the washout phase (diet-induced obesity; washout phase, both Compound 2 groups)	pIC50 (CRM1)	plasma IL-10 compared to vehicle-treated control group [2]	disease score and severity (MOG-induced EAE)
O=C(/C=C\n1cnc(-c2cc(C(F)(F)F)cc(C(F)(F)F)c2)n1)NNC(=O)CN1CCOCC1 [Compound 2, (Z)-3-(3-(3,5-bis(trifluoromethyl)phenyl)-1H-1,2,4-triazol-1-yl)-N′-(2-morpholinoacetyl)acrylohydrazide]	showed the therapeutic efficacy	relatively intact cartilage was found on the joint surface and pannus formation was minimal	dose-related decrease in daily food intake and body weight; also recorded: decreases daily food intake in a dose dependent manner	significant reduction in weight gain	remained lower than DIO controls	> 6.00	–	–
CC(C)(C)C(=O)NNC(=O)/C=C\n1cnc(-c2cc(C(F)(F)F)cc(C(F)(F)F)c2)n1 [Compound 1, (Z)-3-(3-(3,5-bis(trifluoromethyl)phenyl)-1H-1,2,4-triazol-1-yl)-N′-pivaloylacrylohydrazide]	–	–	–	–	–	–	reduced IL-10	significantly decreased disease score and severity; also recorded: decrease in disease score and severity
